From US20240043531A1, “ANTI-CD47 MONOCLONAL ANTIBODY AND USE THEREOF” (Akeso Biopharma, Inc., priority 2021, published 2024) come the findings set out here.

Assay [1] deals with human ovarian cancer SK-OV-3 cells. Put plainly: Immune cell activation: PBMCs with Raji-PDL1 and SK-OV-3 cells, cytokine ELISA. To be noted: SEB-activated PBMCs + Raji-PDL1 + SK-OV-3 cells, 3 days; FIG. 5. It counts as cell-based.
Assay [2] relates to human lung adenocarcinoma A549 cells. Briefly: Immune cell activation: PBMCs with Raji-PDL1 and A549 cells, cytokine ELISA. To be noted: SEB-activated PBMCs + Raji-PDL1 + A549 cells, 3 days; FIG. 4. Format: cell-based. A general note: ELISA stands for enzyme-linked immunosorbent assay.
Assay [3] deals with human prostate cancer LNCAP cells. Put plainly: Immune cell activation: PBMCs with Raji-PDL1 and LNCAP cells, cytokine ELISA. It counts as cell-based. The settings on record: SEB-activated PBMCs + Raji-PDL1 + LNCAP cells, 3 days; FIG. 6.
The subject of assay [4] is Burkitt's lymphoma Raji cells. Put plainly: ADCP: phagocytosis of Raji cells by HPMMs, combination with rituximab. Format: cell-based, human. The settings on record: HPMMs effector, Raji target cells, 37° C. 2 h, flow cytometry; FIG. 1. An excerpt:
(§1) Materials: Azacitidine (purchased from Baxter Oncology GmbH); Hu5F9-G4 (supplied by Akeso Biopharma, Inc.); Raji cells (Chinese Academy of Sciences Shanghai Branch); HL-60 cells (ATCC); RPMI 1640 (Gibco, Cat. No: 22400-105); pancreatin (0.25% Typsin-EDTA (1×)) (Gibco, Cat. No: 25200072); fetal bovine serum (FBS; Excell bio, Cat. No: FSP500); fluorescent dye […] diacetatesuccinimidyl ester (CFSE; Biolegend, Cat. No: 423801); recombinant human macrophage colony-stimulating factor (human M-CSF; PeproTech, Cat. No: 300-25); APC anti-human CD11c antibody (Biolegend, Cat. No: 301614); isotype control (human IgG4; supplied by Akeso Biopharma, Inc.); rituximab (Roche); BSA (Sigma, Cat. No: V900933-1KG); Ficoll paque plus (GE, Cat. No: 17-1440-02). Human peripheral monocyte-derived macrophages (HPMMs) were prepared by inducing PBMCs. Frozen PBMCs were conventionally thawed and incubated in an incubator overnight. The next day, PBMCs were collected, centrifuged at 170×g for 5 min, resuspended in a 1640 medium containing 2% FBS, and incubated in an incubator for 2 h. […]
Procedures: Raji cells in the logarithmic phase were conventionally collected, centrifuged at 170×g for 5 min, resuspended and then washed once with PBS. […] 200 μL of 1% PBSA was added to each tube for resuspension, and the cells were detected on an FACS Calibur flow cytometer. […]
For orientation: A flow cytometer gives signals particle by particle.

In assay [5] the test system is acute myelocytic leukemia (AML) HL-60 cells. Put plainly: ADCP: phagocytosis of HL-60 cells by HPMMs, combination with azacitidine. To be noted: HPMMs effector, HL-60 target cells treated with azacitidine 3 μM or 1 μM for 24 h; antibodies 10 μg/mL and 1 μg/mL; FIG. 2. It counts as cell-based, human.
Description: as §1, with “overnight.” for “overnight. The next day, PBMCs were collected, centrifuged at 170×g for 5 min, resuspended in a 1640 medium containing 2% FBS, and incubated in an incubator for 2 h.”
Procedures: HL-60 cells were conventionally collected and plated in a 6-well plate at 4×10^5 cells/2 mL of 1640 complete medium per well. […] The next day, the treated and blank HL-60 cells were collected, centrifuged at 170×g for 5 min, resuspended and counted. Then the cells were analyzed for viability and washed once with PBS. […]

Assay [6] concerns the target T1, CD47 IgV TEV-His (human CD47 mature peptide of positions 19-141 of NP_942088.1, TEV, his tag fusion protein) (human, UniProt Q08722 19-141).
T1 construct: range 19-141; Synthesized by Akeso Biopharma; not shown: his tag
Put plainly: indirect ELISA screening with CD47 IgV TEV-His as antigen. An excerpt:
Spleen cells of immunized mice were fused with myeloma cells of the mice to prepare hybridoma cells.

The target of the next assay is T2, CD47 IgV TEV-His (Homo sapiens, UniProt Q08722).
T2 construct: human CD47 mature peptide of positions 19-141 of GenbankID: NP 942088.1; His tag (C); host or cells: mammalian cell expression system (said in general terms)
Put plainly: Indirect ELISA screening for antibodies specifically binding CD47. To be noted: monoclonal antibody secreted by hybridoma LT012. An excerpt:
(§2) The antigen used for preparing the anti-CD47 antibody with the hybridoma cell line 6F7 was CD47 IgV TEV-His (including human CD47 mature peptide of positions 19-141 of GenbankID: NP 942088.1 and TEV (amino acid sequence: ENLYFQG, SEQ ID NO: 74)-his tag fusion protein, synthesized by Akeso Biopharma, Inc.) and 3T3-CD47 cells (NIH/3T3, manufacturer: ATCC, Cat. No: CRL-1658; the human CD47 mature peptide was transfected into the cells on the basis of NIH/3T3 to construct a cell line stably expressing 3T3-CD47). Spleen cells of immunized mice were fused with myeloma cells of the mice to prepare hybridoma cells. […] The hybridoma cells obtained by ELISA screening were screened by competitive ELISA to obtain a hybridoma cell line capable of secreting a monoclonal antibody capable of competing for binding to CD47 IgV TEV-His with the receptor human SIRPαECD-hFc-Biotin (SIRPαECD refers to the extracellular region of SIRPα, positions 31-373 of protein GenBank ACCESSION No. NP_542970.1; hFc refers to a human IgG Fc purification label, specifically to Ig gamma-1 chain C region, positions 114-330 of GenbankID: P01857), which was then subjected to dilution cloning to obtain a stable hybridoma cell line. The hybridoma cell line was designated hybridoma cell line LT012, and the monoclonal antibody secreted by the cell line was designated 6F7.

The target in assay [7] is T3, CD47 IgV TEV-His / human SIRPαECD-hFc-Biotin (Homo sapiens, UniProt Q08722).
T3 construct: human CD47 mature peptide of positions 19-141 of GenbankID: NP 942088.1; His tag (C); host or cells: mammalian cell expression system (said in general terms, for CD47 only)
Briefly: Competitive ELISA against receptor SIRPα ECD-hFc-Biotin for binding to CD47.
Description: as §2

With “penpulimab: anti-PD-1 antibody; heavy chain SEQ ID NO: 82, light chain SEQ ID NO: 84 [reference compound]”, the “secretion of IL-2 by PBMC cells” value in assay [1] and in assay [3] was “can significantly stimulate the secretion of IL-2” throughout. The “secretion of IFN-γ by PBMC cells” value in assay [2] is recorded as “can significantly stimulate the secretion of IFN-γ”. Take “rituximab: anti-human CD20 antibody (Roche) [reference compound]”: the “phagocytic index (ADCP)” value in assay [4] is “significantly higher than those of the blank control and the isotype control (human IgG4)”.

Regarding `Nc1ncn([C@@H]2O[C@H](CO)[C@@H](O)[C@H]2O)c(=O)n1` [azacitidine], the “phagocytic index (ADCP)” value in assay [5] is “significantly higher than those of the blank control and the isotype control (human IgG4)”.

B1: anti-CD47 monoclonal antibody 6F7 (secreted by hybridoma cell line LT012) (antibody, V domains shown)
VH: QVQLQQPGAELVRPGASVKLSCKASGYTFTSYWMNWVKQRPGQGLEWIGMIDPSDSETHNNQMFKDKATLTVDKSSNTAYMHLSSLTSEDSAVYHCARLYRWYFDVWGAGTTVTVSS
VL: NIVMTQSPKSMSMSLGERVTLSCKASEIVGTYVSWFQQKPHQSPKLLIYGASNRYTGVPDRFTGSGSATDFTLTISNVQAEDLADYHCGQSYNFPYTFGGGTKLEIK
notes: Murine hybridoma antibody; also called CD47-6F7; LT012 antibody
On to B1, for which the binding result in assay [6] is listed as “binds”.

B2: 6F7: murine anti-CD47 monoclonal antibody secreted by hybridoma LT012; VH SEQ ID NO: 2, VL SEQ ID NO: 4 (antibody, V domains shown)
VH: QVQLQQPGAELVRPGASVKLSCKASGYTFTSYWMNWVKQRPGQGLEWIGMIDPSDSETHNNQMFKDKATLTVDKSSNTAYMHLSSLTSEDSAVYHCARLYRWYFDVWGAGTTVTVSS
VL: NIVMTQSPKSMSMSLGERVTLSCKASEIVGTYVSWFQQKPHQSPKLLIYGASNRYTGVPDRFTGSGSATDFTLTISNVQAEDLADYHCGQSYNFPYTFGGGTKLEIK
modifications: Synthetic artificial sequence-Amino acid sequence of the heavy chain variable region of 6F7; Synthetic artificial sequence-Amino acid sequence of the variable region of the light chain of 6F7
For B2, the “specific binding to CD47” value with CD47 IgV TEV-His is “capable of specifically binding to CD47”. The “competition with SIRPα ECD-hFc-Biotin for binding to CD47” value in assay [7] was “can compete with the receptor SIRPα ECD-hFc-Biotin for binding to CD47”.
